The IC50 is the concentration needed to halve the response being measured. Read a low IC50 as greater potency in that assay.

Series [1] can be described thus: Pharmacokinetic study (HPLC-MS of blood samples). The conditions noted are these: male C57BL/6 mice. It is filed as in vivo. The procedure: Pharmacokinetic study of cobalt complex 2 was performed in male C57BL/6 mice by the dosage of 40 mg/kg. The source of mouse and practice of husbandry were the same as described in the methodology section of LLC-1 Xenograft Tumor experiment. Cobalt complex 2 was diluted in the formula (PEG400: H2O: Ethanol = 6:3:1) and administered by intraperitoneal in a volume of 0.005 mL/g bodyweight. After dosing, blood samples were collected to sodium heparin anticoagulant tube at different time points (5, 15, 30 min, and then 1, 2, 4, 8, 12 and 24 hours); 4 mice were used for each time point. Approximately 200 μL of blood was collected via orbital vein from each anesthetized mouse by isoflurane. Plasma was separated by centrifugation at 3000 g for 10 minutes at 4°C. The plasma was protected and stored at −80°C until analyzed by liquid chromatography-mass spectrometry/mass spectrometry (LC-MS/MS) for quantification.
Plasma samples were thawed at room temperature and then vortexed to ensure sample solution homogeneity. Firstly, a 20 μL aliquot of each plasma sample were loaded into 1.5 mL tube, 100 μL acetonitrile was added, vortexed then centrifuged at 13000 rpm for 10 min. the supernatant was collected. The plasma cobalt complex 2 concentrations were quantified using Thermo HPLC Ultimate 3000 system. The compound in plasma samples were analyzed by using the Agilent Zorbax Eclipse Plus C-18 column with a particle size of 1.8 μm. The parameters of the gradient elution program were applied as follows: mobile phase A (0.1% formic acid in water) and mobile phase B acetonitrile: 0–5.5 min, 20% B; 5.5–7 min, 90% B; 7–10 min, 20% B. The column and autosampler temperature were maintained at 40 and 4 °C, respectively. The gas temperature was set 320 °C with flow rate (0.8 mL/min), gases were set at 10 psi for the nebulizer, capillary, 3500 V.

The test system of series [2] is Hep3B (liver cancer) cells. The experiment in a line: MTT cytotoxicity assay, Hep 3B. It is filed as cell-based. The conditions noted are these: 72 h. The procedure: (§1) All tested compounds were dissolved in DMSO at a final concentration of 50 mmol/L and stored at −20°C before use. Cytotoxicity was assessed by using the 3-(4,5-dimethylthiazol-2-yl)-2, 5-diphenyltetrazolium bromide (MTT) (5.0 mg/ml) assay as previously described. Briefly, 4×10^3 cells per well were seeded in 96-well plates before drug treatments. After overnight culture, the cells were then exposed to different concentrations of selected compounds ([…]) for 72 hours. Cells without drug treatment were used as control. Subsequently, MTT (10 μL) solution was added to each well and incubated at 37°C for 4 hours followed by the addition of 100 μL solubilization buffer (10%SDS in 0.01 mol/L HCl) and overnight incubation. A570 nm was then determined in each well on the next day. The percentage of cell viability was calculated using the following formula: Cell viability (%) = Atreated/Acontrol × 100. Data were obtained from three independent experiments.

Series [3] concerns HeLa (cervical cancer) cells. The experiment in a line: MTT cytotoxicity assay, HeLa. It is filed as cell-based. The conditions noted are these: 72 h. The procedure:
as §1
(Formazan colour is commonly taken as a measure of viable cells.)

The subject of series [4] is A549 taxol-sensitive cancer cells. The series can be described thus: MTT cytotoxicity, taxol-sensitive A549. It is filed as cell-based. The conditions noted are these: 72 h.
Source text: (§2) All cells were obtained from the American Type Culture Collection (Rockville, MD, USA) unless otherwise specified. Immortalized wild-type and Atg7-deficient mouse embryonic fibroblasts (MEFs) were kindly provided by Professor Masaaki Komatsu (Juntendo University, School of Medicine, Japan). Taxol-resistant types of MCF-7, HCT-8, A549 cancers cells and cisplatin-resistant SGC7901 cancer cells were purchased from KeyGEN BioTECH, China. Cisplatin-sensitive or –resistant A2780, OV2008 and C13 cancer cells were kindly provided by Prof. Benjamin Tsang (Department of Obstetrics and Gynecology and Department of Cellular and Molecular Medicine, University of Ottawa, Canada). HCT116 p53^+/+ and p53^−/− isogenic human colon cancer cells were kindly provided by Professor Bert Vogelstein (Ludwig Center at Johns Hopkins, Howard Hughes Medical Institute, USA). All media were supplemented with 10% fetal bovine serum and antibiotics penicillin (50 U/ml) and streptomycin (50 μg/ml; Invitrogen, Paisley, Scotland, UK). All cell cultures were incubated at 37°C in a 5% humidified CO2 incubator.
as §1

The test system of series [5] is SGC-7901 cisplatin-resistant cancer cells. The series can be described thus: MTT cytotoxicity, cisplatin-resistant SGC-7901. Format: cell-based.
Source text: as §2, §1

The test system of series [6] is HepG2 (liver cancer) cells. The experiment in a line: MTT cytotoxicity assay, HepG2. Format: cell-based. The conditions noted are these: 72 h. The procedure:
as §1

The test system of series [7] is A549 (EGFR wild-type lung cancer) cells. The experiment in a line: MTT cytotoxicity assay, A549. It is filed as cell-based. The conditions noted are these: 72 h. On the procedure:
as §1

The target in another series is P-gp ATPase (Homo sapiens, UniProt P08183). The conditions noted are these: 0–2 μM, verapamil (200 μM) stimulated, ATP, 1 h at 37°C. On the procedure:
The luminescence of the sample reflects the ATP level in the sample, which is negatively correlated with the activity of P-gp ATPase and was recorded using the SpectraMax Paradigm Multi-Mode Microplate Reader (Molecular Devices). DMSO-treated activities are expressed as the percentage of basal activity.

Series [8] deals with LLC-1 (mouse lung cancer) cells. The experiment in a line: MTT cytotoxicity assay, LLC-1. It is filed as cell-based. The conditions noted are these: LLC-1, MTT, 72 h. The procedure: as §1

Sequence of P-gp ATPase (P08183 whole entry): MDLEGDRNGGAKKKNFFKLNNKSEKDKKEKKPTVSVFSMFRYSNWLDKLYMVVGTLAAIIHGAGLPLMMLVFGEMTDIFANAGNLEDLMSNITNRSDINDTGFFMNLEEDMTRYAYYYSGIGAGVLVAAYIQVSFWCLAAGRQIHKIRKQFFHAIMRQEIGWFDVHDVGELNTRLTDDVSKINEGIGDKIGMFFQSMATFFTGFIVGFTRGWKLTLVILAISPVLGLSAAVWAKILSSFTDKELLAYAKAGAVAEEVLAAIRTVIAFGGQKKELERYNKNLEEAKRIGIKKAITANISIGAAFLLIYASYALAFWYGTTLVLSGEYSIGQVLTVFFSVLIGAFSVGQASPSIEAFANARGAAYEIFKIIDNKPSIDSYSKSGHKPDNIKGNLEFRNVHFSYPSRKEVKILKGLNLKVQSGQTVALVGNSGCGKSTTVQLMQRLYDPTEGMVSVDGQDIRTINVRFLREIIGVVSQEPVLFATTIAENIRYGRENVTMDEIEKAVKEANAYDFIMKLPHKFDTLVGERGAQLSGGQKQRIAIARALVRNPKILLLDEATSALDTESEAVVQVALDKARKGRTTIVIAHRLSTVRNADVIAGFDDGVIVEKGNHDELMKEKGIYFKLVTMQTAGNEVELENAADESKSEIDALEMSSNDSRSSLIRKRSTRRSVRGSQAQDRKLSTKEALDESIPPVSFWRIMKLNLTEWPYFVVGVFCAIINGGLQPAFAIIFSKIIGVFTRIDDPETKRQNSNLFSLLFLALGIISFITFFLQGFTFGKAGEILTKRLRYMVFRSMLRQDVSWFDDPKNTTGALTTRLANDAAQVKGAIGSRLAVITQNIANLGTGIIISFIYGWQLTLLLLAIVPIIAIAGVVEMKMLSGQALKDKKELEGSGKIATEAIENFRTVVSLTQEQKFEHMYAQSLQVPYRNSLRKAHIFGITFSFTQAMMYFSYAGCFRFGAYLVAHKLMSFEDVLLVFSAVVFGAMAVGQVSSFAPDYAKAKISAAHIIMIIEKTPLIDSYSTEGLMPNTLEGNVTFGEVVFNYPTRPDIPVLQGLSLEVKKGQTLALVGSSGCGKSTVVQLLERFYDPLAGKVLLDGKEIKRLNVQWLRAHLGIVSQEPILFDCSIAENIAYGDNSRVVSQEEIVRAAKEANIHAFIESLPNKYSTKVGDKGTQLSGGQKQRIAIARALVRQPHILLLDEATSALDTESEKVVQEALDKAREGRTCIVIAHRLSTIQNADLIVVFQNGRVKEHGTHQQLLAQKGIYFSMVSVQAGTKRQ

As for `Cc1ccnc(-c2cc(C)ccn2)c1.Cc1ccnc(-c2cc(C)ccn2)c1.Cc1ccnc(-c2cc(C)ccn2)c1.F[P-](F)(F)(F)(F)F.F[P-](F)(F)(F)(F)F.F[P-](F)(F)(F)(F)F.[Co+3]` [complex 2, [Co^III(4,4’-Me2-bpy)3](PF6)3], the “species detected in blood samples by HPLC-MS” value in series [1] (40 mg/kg intraperitoneal of complex 2, 5 min to 24 hours) is recorded as “neither cobalt complex 2 nor its decomposed species was observed”. Further, in series [1] (40 mg/kg intraperitoneal, after 2-hour time interval), the metabolism after absorption result was “almost complete metabolism”. Moreover, the IC50 in [2] amounted to 3.7 µM; in series [3] it was 11.9 µM; in series [4], 11.5 µM; in series [5] (SGC-7901 cisplatin-resistant, MTT, 72 h), 12.6 µM; in series [6], 5.44 µM; in [7], 7.86 µM. In addition, half-maximal inhibition in series [8] (IC50) was put at 3.39 µM. Further, the “Resistant Factor, SGC-7901” value in series [5] (cisplatin-resistant over cisplatin-sensitive IC50, SGC-7901) came out at 1.14. Besides, the “P-gp ATPase activity (change in luminescence)” value on P-gp ATPase is “dose-dependently inhibited the ATPase activity of P-gp”.

Values taken from article PMC5589637, “New perspectives of cobalt tris(bipyridine) system: anti-cancer effect and its collateral sensitivity towards multidrug-resistant (MDR) cancers” (Oncotarget, 2017).
